Laboratory results: the supplement of paper PMC8671470
Structures can show the parent of a compound that is named as a salt. ± gives the standard deviation of the averaged measurements.

What was measured:
Conditions in all cases: 72 h
K-562 [1] = assay: cell viability (% survival relative to DMSO control, bortezomib = 0%); higher = less cytotoxic
How it was run: (§1)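 After 72 h at 37 °C with 5% CO2, cell viability in 384-well plates was measured by CellTiter-Glo luminescence. The plates held compounds pre-printed at 1, 10, 100, 1000 or 10000 nM in duplicate, and cells from 10 AML and 5 CML lines seeded at densities titrated to linear growth. Percent survival is the duplicate mean, normalised to vehicle as 100% and a 10 µM positive control as 0%.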

MOLM-13 [2] = assay: as above
How it was run: as §1

BV-173 [3] = assay: as above
How it was run: as §1

THP-1 [4] = assay: as above
How it was run: as §1

LAMA-84 [5] = assay: as above
How it was run: as §1

NOMO-1 [6] = assay: as above
How it was run: as §1

KU-812 [7] = assay: as above
How it was run: as §1

MV4-11 [8] = assay: as above
How it was run: as §1

HL-60 [9] = assay: as above
How it was run: as §1

SHI-1 [10] = assay: as above
How it was run: as §1

Mono-Mac-6 [11] = assay: as above
How it was run: as §1

K-562 [12] = test system: K-562
How it was run: (§2)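 Dose–response data were fitted with a four-parameter log-logistic model. They came from fifteen myeloid leukaemia lines treated in duplicate with five tenfold doses from 1 to 10,000 nM for 72 h at 37 °C with 5% CO2, with ATP viability normalised to vehicle and to a positive control at 10 µM. The IC50 was derived from these fits.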

MOLM-13 [13] = test system: MOLM-13
How it was run: as §2

BV-173 [14] = test system: BV-173
How it was run: as §2

THP-1 [15] = test system: THP-1
How it was run: as §2

LAMA-84 [16] = test system: LAMA-84
How it was run: as §2

NOMO-1 [17] = test system: NOMO-1
How it was run: as §2

KU-812 [18] = test system: KU-812
How it was run: as §2

MV4-11 [19] = test system: MV4-11
How it was run: as §2

HL-60 [20] = test system: HL-60
How it was run: as §2

SHI-1 [21] = test system: SHI-1
How it was run: as §2

Mono-Mac-6 [22] = test system: Mono-Mac-6
How it was run: as §2

HL-60 [23] = assay: area under dose-response curve (viability, 1 nM-10 uM) (fraction (0-1)); higher = more sensitive
How it was run: (§3)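 In 384-well plates, the full library was rescreened in duplicate on HL-60 cells in RPMI 1640 with 10% FBS, at 1–10,000 nM in five tenfold concentrations, for 72 h at 37 °C, 5% CO2. Each run also held DMSO or 100 nM of one of three metabolic inhibitors. Viability was measured by CellTiter-Glo and normalised to DMSO wells and to wells with proteasome inhibitor, present at 10 μM. Any area under the curve comes from four-parameter log-logistic fitting with drc and PharmacoGx.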

HL-60 [24] = assay: cell viability (% survival relative to DMSO control); higher = less cytotoxic
How it was run: as §3

HEL = test system: HEL
How it was run: as §2

KG-1 = test system: KG-1
How it was run: as §2

ML-2 = test system: ML-2
How it was run: as §2

KCL-22 = test system: KCL-22
How it was run: as §2

O=C(Nc1ccccc1)c1cc([N+](=O)[O-])ccc1Cl [GW9662]
cell viability [%]
Conditions | 1 nM | 10 nM | 100 nM | 1000 nM | 10000 nM
BV-173 [3] | 103 | 95.7 | 113 | 91.8 | 56.6
HL-60 [9] | 90.2 | 98.8 | 98.2 | 106 | 72.6
K-562 [1] | 112 | 102 | 105 | 108 | 65.4
KU-812 [7] | 97.9 | 102 | 113 | 87.3 | 71.7
LAMA-84 [5] | 98.7 | 95.9 | 110 | 101 | 90.5
MOLM-13 [2] | 109 | 97 | 95.5 | 122 | 80.8
MV4-11 [8] | 102 | 93.3 | 108 | 115 | 42.9
Mono-Mac-6 [11] | 101 | 107 | 110 | 112 | 115
NOMO-1 [6] | 95.6 | 96.4 | 97.3 | 102 | 91.8
SHI-1 [10] | 111 | 104 | 103 | 107 | 93.8
THP-1 [4] | 103 | 101 | 102 | 93.7 | 77.2

Conditions | IC50 (cell viability) [µM]
BV-173 [14] | 8.53
HL-60 [20] | > 10
K-562 [12] | > 10
KU-812 [18] | > 10
LAMA-84 [16] | > 10
MOLM-13 [13] | > 10
MV4-11 [19] | 8.81
Mono-Mac-6 [22] | > 10
NOMO-1 [17] | > 10
SHI-1 [21] | > 10
THP-1 [15] | > 10

Cc1cc(CS(=O)(=O)c2ccccc2)cc(OCc2ccc(CN3CCC[C@@H]3CO)cc2)c1 [PF 543 hydrochloride]
HL-60 [23]
Conditions | area under dose-response curve
co-treatment: AZD3965 100 nM | < 0.0301
co-treatment: DMSO vehicle | < 0.0301
co-treatment: GSK2194069 100 nM | < 0.0301
co-treatment: pictilisib 100 nM | < 0.0301

cell viability [%], HL-60 [24]
Conditions | 0.001 µM | 0.01 µM | 0.1 µM | 1 µM | 10 µM
co-treatment: AZD3965 100 nM | 95.8 ± 1.5 | 101 ± 4 | 100.5 ± 0.44 | 95.55 ± 0.86 | 96.1 ± 2.8
co-treatment: DMSO vehicle | 99.4 ± 3.8 | 100 ± 1.8 | 103 ± 2.3 | 99.8 ± 3.3 | 103 ± 3.5
co-treatment: GSK2194069 100 nM | 81.7 ± 13 | 94.56 ± 0.26 | 96.8 ± 9.3 | 95.1 ± 3.4 | 92.2 ± 2.2
co-treatment: pictilisib 100 nM | 79.4 ± 25 | 97.3 ± 2.2 | 93.9 ± 3.4 | 99.7 ± 5.8 | 96.7 ± 3.2

N#Cc1ccnc(N2C(=O)CC[C@H]2C(=O)N(c2cncc(F)c2)[C@H](C(=O)NC2CC(F)(F)C2)c2ccccc2Cl)c1 [AG-120]
HL-60 [23]
Conditions | area under dose-response curve
co-treatment: AZD3965 100 nM | < 0.0301
co-treatment: DMSO vehicle | < 0.0301
co-treatment: GSK2194069 100 nM | < 0.0301
co-treatment: pictilisib 100 nM | < 0.0301

cell viability [%], HL-60 [24]
Conditions | 0.001 µM | 0.01 µM | 0.1 µM | 1 µM | 10 µM
co-treatment: AZD3965 100 nM | 102 ± 4 | 86.8 ± 16 | 113 ± 6.2 | 91 ± 1.1 | 102 ± 0.68
co-treatment: DMSO vehicle | 104 ± 3.2 | 98.74 ± 0.48 | 99.6 ± 6.6 | 97.6 ± 1.5 | 99.14 ± 0.77
co-treatment: GSK2194069 100 nM | 93.1 ± 14 | 101 ± 9.3 | 99.8 ± 12 | 92.3 ± 7.1 | 88.3 ± 1.1
co-treatment: pictilisib 100 nM | 92.9 ± 6.7 | 98.2 ± 11 | 104 ± 1.6 | 77.1 ± 13 | 98.6 ± 1.9

CCC(C)(C)C(=O)O[C@H]1C[C@@H](C)C=C2C=C[C@H](C)[C@H](CC[C@@H]3C[C@@H](O)CC(=O)O3)[C@H]21 [Simvastatin]
Conditions | IC50 (cell viability) [µM]
BV-173 [14] | > 10
HEL | > 10
HL-60 [20] | > 10
K-562 [12] | > 10
KCL-22 | > 10
KG-1 | > 10
KU-812 [18] | > 10
LAMA-84 [16] | > 10
ML-2 | > 10
MOLM-13 [13] | > 10
MV4-11 [19] | > 10
Mono-Mac-6 [22] | > 10
NOMO-1 [17] | > 10
SHI-1 [21] | > 10
THP-1 [15] | > 10

CC/C=C\C[C@H]1C(=O)CC[C@@H]1CC(=O)OC [methyl jasmonate]
HL-60 [23]
Conditions | area under dose-response curve
co-treatment: AZD3965 100 nM | < 0.0301
co-treatment: DMSO vehicle | < 0.0301
co-treatment: GSK2194069 100 nM | < 0.0301
co-treatment: pictilisib 100 nM | < 0.0301

cell viability [%], HL-60 [24]
Conditions | 0.001 µM | 0.01 µM | 0.1 µM | 1 µM | 10 µM
co-treatment: AZD3965 100 nM | 98.2 ± 3.6 | 106 ± 7.2 | 100.7 ± 1 | 105 ± 1.9 | 106 ± 14
co-treatment: DMSO vehicle | 101 ± 1.2 | 99.7 ± 6.1 | 97.6 ± 3 | 102.5 ± 0.84 | 102 ± 3.3
co-treatment: GSK2194069 100 nM | 95.5 ± 2.6 | 99.5 ± 5 | 98.1 ± 4.1 | 93.3 ± 11 | 105 ± 16
co-treatment: pictilisib 100 nM | 96.58 ± 0.3 | 104 ± 13 | 101 ± 4.1 | 109 ± 1.8 | 99.6 ± 3.4
